Each structure is given as a SMILES string. Activity calls are given as the source filed them. No cut-off for these calls is given here.

Chain of Cholinesterase (Equus caballus) (P81908 whole entry): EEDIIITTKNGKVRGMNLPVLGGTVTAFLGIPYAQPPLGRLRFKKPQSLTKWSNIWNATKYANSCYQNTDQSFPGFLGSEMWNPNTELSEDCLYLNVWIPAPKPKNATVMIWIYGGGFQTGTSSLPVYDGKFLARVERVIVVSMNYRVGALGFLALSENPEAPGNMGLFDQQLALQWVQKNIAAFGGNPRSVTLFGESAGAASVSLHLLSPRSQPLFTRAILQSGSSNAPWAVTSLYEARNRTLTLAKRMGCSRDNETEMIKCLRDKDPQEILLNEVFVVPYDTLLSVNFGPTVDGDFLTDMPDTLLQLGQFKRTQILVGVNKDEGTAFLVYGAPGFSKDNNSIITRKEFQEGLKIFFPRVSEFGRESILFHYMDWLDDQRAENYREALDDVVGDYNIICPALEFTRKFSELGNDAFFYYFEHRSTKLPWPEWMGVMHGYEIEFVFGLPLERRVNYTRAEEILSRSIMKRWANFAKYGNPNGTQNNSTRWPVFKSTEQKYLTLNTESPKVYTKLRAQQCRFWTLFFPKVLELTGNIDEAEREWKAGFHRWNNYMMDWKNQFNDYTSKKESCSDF

The experiment has as its target Cholinesterase (Equus caballus) (UniProt P81908). Nature of the experiment: Mixed type inhibition of equine serum BuChE by Dixon plot analysis.
`CC(=O)O[C@H]1CC[C@]2(C)[C@H]3CC=C4[C@@H]5CC(C)(C)CC[C@]5(C(=O)N5CC6CC[N+](C)(CC6)C5)CC[C@@]4(C)[C@]3(C)CC[C@H]2C1(C)C`: the inhibition mechanism entry is “Active”. Under `CC(=O)O[C@H]1CC[C@]2(C)[C@H]3C(=O)C[C@H]4[C@@H]5C[C@@](C)(C(=O)N6CC7CC[N+](C)(CC7)C6)CC[C@]5(C)CC[C@@]4(C)[C@]3(C)CC[C@H]2C1(C)C` stands “Active”; under `CC(=O)O[C@H]1CC[C@]2(C)[C@H]3CC=C4[C@@H]5[C@@H](C)[C@H](C)CC[C@]5(C(=O)N5CC6CC[N+](C)(CC6)C5)CC[C@@]4(C)[C@]3(C)CC[C@H]2C1(C)C`, “Active”; under `C=C(C)[C@@H]1CC[C@]2(C(=O)N3CC4CC[N+](C)(CC4)C3)CC[C@]3(C)[C@@H](CC[C@@H]4[C@@]5(C)CC[C@H](OC(C)=O)C(C)(C)[C@@H]5CC[C@]43C)[C@H]12`, “Active”.

On to `CC(=O)O[C@H]1CC[C@]2(C)[C@H]3CC[C@H]4[C@@H]5[C@H](C(C)=O)CC[C@]5(C(=O)N5CC6CC[N+](C)(CC6)C5)CC[C@@]4(C)[C@]3(C)CC[C@H]2C1(C)C`, for which the inhibition mechanism result is “Active”.
